# In ChEMBL document CHEMBL1275376, “Development, validation, and use of quantitative structure-activity relationship models of 5-hydroxytryptamine (2B) receptor ligands to identify novel receptor binders and putative valvulopathic compounds among common drugs” (J Med Chem, 2010):
# Target: T1, 5-hydroxytryptamine receptor 2B (Homo sapiens, UniProt P41595)
# Test: Agonist at human 5HT2B receptor expressed in HEK293 cells assessed as induction of calcium influx by FLIPR assay
# Type: functional, cell-based
# T1 sequence (P41595 whole entry): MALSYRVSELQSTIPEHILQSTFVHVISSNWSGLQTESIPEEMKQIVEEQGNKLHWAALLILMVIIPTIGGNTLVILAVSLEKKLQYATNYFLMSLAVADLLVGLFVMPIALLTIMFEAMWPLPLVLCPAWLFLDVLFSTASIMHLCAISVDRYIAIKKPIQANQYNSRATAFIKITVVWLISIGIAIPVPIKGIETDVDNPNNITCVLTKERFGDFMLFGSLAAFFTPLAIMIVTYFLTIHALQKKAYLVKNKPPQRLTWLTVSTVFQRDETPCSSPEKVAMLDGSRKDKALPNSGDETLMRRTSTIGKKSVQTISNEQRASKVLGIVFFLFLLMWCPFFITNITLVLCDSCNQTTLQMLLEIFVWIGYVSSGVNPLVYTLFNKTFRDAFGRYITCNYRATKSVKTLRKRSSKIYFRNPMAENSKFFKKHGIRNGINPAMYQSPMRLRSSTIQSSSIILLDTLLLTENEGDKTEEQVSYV
row,SMILES,EC50 [nM]
1,CC[C@@H](CO)NC(=O)[C@@H]1C=C2c3cccc4[nH]cc(c34)C[C@H]2N(C)C1 [METHYLERGONOVINE],21.4

# Target: T1, 5-hydroxytryptamine receptor 2B
# Test: Displacement of [3H]LSD from human cloned 5HT2B receptor expressed in CHO cells by liquid scintillation counting
# Type: cell-based
row,SMILES,Ki [nM]
1,COc1ccc2[nH]cc(CN)c2c1,1620
2,Cn1ccc2cc3c(cc21)CCN3C(=O)Nc1cccnc1,4.3
3,COc1cc2c(CCNC(C)=O)c[nH]c2cc1F,2500
4,Fc1ccc(N2CCN(CCC3OCCc4ccccc43)CC2)cc1 (centres undefined),69.6
5,COc1ccc2[nH]c3c(c2c1)CCNC3C (centres undefined) [ADRENOGLOMERULOTROPIN],491
6,CC(NCCC(c1ccccc1)c1ccccc1)c1ccccc1 (centres undefined) [FENDILINE],3220
7,NC(=O)N1c2ccccc2CC(O)c2ccccc21 (centres undefined) [LICARBAZEPINE],> 10000
8,CC[C@@H](CO)NC(=O)[C@@H]1C=C2c3cccc4[nH]cc(c34)C[C@H]2N(C)C1 [METHYLERGONOVINE],0.8
